Laboratory results from ChEMBL document CHEMBL6096652, “Design, synthesis and anti-tumor evaluation of novel pyrimidine and quinazoline analogues” (Eur J Med Chem, 2025).

Key:
Format in all cases: functional, cell-based
[1] = test system: B16-F10; experiment: Antiproliferative activity against mouse B16-F10 cells incubated for 48 hrs by MTT assay; settings: B16-F10, 48 h
[2] = test system: A549; experiment: Antiproliferative activity against human A549 cells incubated for 48 hrs by MTT assay; settings: A549, 48 h
[3] = test system: HepG2; experiment: Antiproliferative activity against human HepG2 cells incubated for 48 hrs by MTT assay; settings: HepG2, 48 h
[4] = test system: MCF7; experiment: Antiproliferative activity against human MCF7 cells incubated for 48 hrs by MTT assay; settings: MCF7, 48 h

Row | SMILES | IC50 [1] | IC50 [2] | IC50 [3] | IC50 [4]
1 | COc1cc(Nc2nc(-c3cc(OC)c(OC)c(OC)c3)nc3ccccc23)cc(OC)c1OC | 0.132 µM | 0.396 µM | 0.781 µM | 2.94 µM
2 | COc1cc(Nc2nc(-c3ccc4c(cnn4C)c3)nc3ccccc23)cc(OC)c1OC | 1.78 µM | 6.47 µM | 3.14 µM | 3.33 µM
3 | COc1cc(Nc2nc(-c3ccc(C)cc3)nc3ccccc23)cc(OC)c1OC | > 50 µM | 1.83 µM | 2.44 µM | > 50 µM
4 | COc1cc(NC(=O)c2ccnc(-c3ccc4c(c3)OCCO4)n2)cc(OC)c1OC | > 50 µM | 3.11 µM | > 50 µM | > 50 µM
5 | COc1cc(Nc2ccnc(-c3cc(OC)c(OC)c(OC)c3)n2)cc(OC)c1OC | > 50 µM | > 50 µM | > 50 µM | > 50 µM
6 | COc1cc(Nc2nc(-c3cccc4c3ccn4C)nc3ccccc23)cc(OC)c1OC | 0.784 µM | 1.35 µM | 0.547 µM | 0.877 µM
7 | COc1ccc(-c2nc(Nc3cc(OC)c(OC)c(OC)c3)c3ccccc3n2)cc1 | > 50 µM | > 50 µM | > 50 µM | > 50 µM
8 | COc1ccc(-c2nccc(C(=O)Nc3cc(OC)c(OC)c(OC)c3)n2)cc1OC | > 50 µM | > 50 µM | > 50 µM | > 50 µM
9 | COc1cc(NC(=O)c2ccnc(-c3cccc4c3ccn4C)n2)cc(OC)c1OC | 2.28 µM | 3.09 µM | 1.1 µM | 1.89 µM
10 | COc1ccc(-c2nc(Nc3cc(OC)c(OC)c(OC)c3)c3ccccc3n2)cc1OC | 0.331 µM | 5.6 µM | > 50 µM | > 50 µM
11 | COc1cc(Nc2nc(-c3ccccc3)nc3ccccc23)cc(OC)c1OC | 0.884 µM | 3.96 µM | 0.807 µM | 4.89 µM

Continued, values first:

Row | IC50 [1] | IC50 [2] | IC50 [3] | IC50 [4] | SMILES
12 | 2.69 µM | 2.22 µM | 1.22 µM | 7.27 µM | COc1ccc(-c2nccc(Nc3cc(OC)c(OC)c(OC)c3)n2)cc1
13 | 7.2 µM | 4.08 µM | 9.2 µM | > 50 µM | COc1cc(Nc2ccnc(-c3ccccc3)n2)cc(OC)c1OC
14 | 4.57 µM | 5.55 µM | 5.92 µM | 7.12 µM | COc1cc(Nc2ccnc(-c3cccc4c3cnn4C)n2)cc(OC)c1OC
15 | > 50 µM | > 50 µM | > 50 µM | > 50 µM | COc1cc(NC(=O)c2ccnc(-c3ccc(C(F)(F)F)cc3)n2)cc(OC)c1OC
16 | > 50 µM | 4.76 µM | 4.33 µM | > 50 µM | COc1cc(Nc2ccnc(-c3ccc(C#N)cc3)n2)cc(OC)c1OC
17 | 1.85 µM | 0.598 µM | 1.46 µM | 1.13 µM | COc1cc(Nc2ccnc(-c3ccc4c(cnn4C)c3)n2)cc(OC)c1OC
18 | > 50 µM | > 50 µM | > 50 µM | > 50 µM | COc1cc(Nc2nc(-c3ccc(F)cc3)nc3ccccc23)cc(OC)c1OC
19 | 8.25 µM | 6.51 µM | 7.94 µM | > 50 µM | COc1cc(Nc2ccnc(-c3ccc(F)cc3)n2)cc(OC)c1OC
20 | 4.97 µM | 1.08 µM | 6.53 µM | 6.74 µM | COc1cc(Nc2ccnc(-c3ccc(O)c(C)c3)n2)cc(OC)c1OC
21 | > 50 µM | 3.09 µM | > 50 µM | > 50 µM | COc1ccc(-c2nccc(Nc3cc(OC)c(OC)c(OC)c3)n2)cn1
22 | 1.82 µM | 2.31 µM | 4.9 µM | 5.31 µM | COc1cc(Nc2ccnc(-c3ccc4c(ccn4C)c3)n2)cc(OC)c1OC
23 | > 50 µM | 6.08 µM | > 50 µM | > 50 µM | COc1cc(NC(=O)c2ccnc(-c3ccc(C)cc3)n2)cc(OC)c1OC
24 | 7.62 µM | 2.14 µM | 1.85 µM | 5.77 µM | COc1cc(Nc2ccnc(-c3ccc(C)cc3)n2)cc(OC)c1OC
